{"source": "paper PMC2994021", "about": "“Isolation of cytoplasmic NADPH-dependent phenol hydroxylase and catechol-1,2-dioxygenase from Candida tropicalis yeast” (Interdisciplinary Toxicology, 2010)", "system": "T1, NADPH-dependent phenol hydroxylase", "T1 construct": "native enzyme purified from cytosol of phenol-grown yeast (DEAE-Sepharose, PEG 6000, Sepharose 4B), close to homogeneity", "assay": "HPLC of phenol consumption, Michaelis-Menten kinetics", "assay_type": "biochemical, Candida tropicalis", "details": "with NADPH; same Km from catechol formation; read-out: apparent Km", "data": [{"smiles": "Oc1ccccc1", "note": "[phenol]", "values": [{"measurement": "Km", "value": 450, "unit": "µM"}]}]}
